Measured values reported in US8476197B2, “Aminopropenoates as fungicides” (priority 2009, dated 2013).
Marks after values point to notes of the source that are not given here.

Details: pH 2.3

| SMILES | Log P |
| --- | --- |
| COC(=O)C(C#N)=C(NC(C)C(C)C)c1cccnc1Cl (stereo not shown) [Compound 931] | 3 |
| CC(C)C(C)NC(=C(C#N)C(=O)NC1CSC1)c1cccnc1Cl (stereo not shown) [Compound 1452] | 3.22^[c]; 3.22^[b] |
| CCOC(=O)C(C#N)=C(NC1CC1)c1cccnc1Cl [Compound 764] | 2.5 |
| CCOC(=O)C(C#N)=C(NC(C)c1nccs1)c1cccnc1F (stereo not shown) [Compound 79] | 2.47 |
| CONC(=O)C(C#N)=C(Nc1ccccc1SC)c1cccnc1Cl [Compound 1620] | 2.19 |
| CCOC(=O)C(C#N)=C(Nc1cnc2sccc2c1)c1cccnc1Cl [Compound 1310] | 2.56 |

Same assay, conditions: pH 2.7

| SMILES | Log P |
| --- | --- |
| CCOC(=O)C(C#N)=C(NC1CCC1)c1ccncc1Br [Compound 803] | 2.9^[a] |
| CCOC(=O)C(C#N)=C(NC1CC1C)c1cccnc1Cl (stereo not shown) [Compound 1067] | 2.86^[a] |
| COC(=O)C(C#N)=C(NC(C)C(N)=O)c1sc(C)nc1C(F)(F)F (stereo not shown) [Compound 634] | 1.69^[a] |
| CCOC(=O)C(C#N)=C(NC(C)c1nccs1)c1cn(C)nc1I (racemic) [Compound 1247] | 3.46^[a] |
| CCOC(=O)C(C#N)=C(NC(C)c1nccs1)c1cn(C)nc1C(F)F (racemic) [Compound 34] | 2.4^[a] |
| CCOC(=O)C(C#N)=C(Nc1ccc2ncsc2c1)c1sccc1C(F)(F)F [Compound 509] | 3.21^[a] |
| COC(=O)C(C#N)=C(NC(C)C(C)C)c1cccnc1Cl (stereo not shown) [Compound 931] | 2.76 |
| CCOC(=O)C(C#N)=C(NC1CC1C(C)C)c1cccnc1Cl (stereo not shown) [Compound 1635] | 3.53^[a] |
| CCOC(=O)C(C#N)=C(NCc1ccc(F)cn1)c1cn(C)nc1C(F)F [Compound 203] | 2.33^[a] |
| CCOC(=O)C(C#N)=C(NC(C(=O)OC)C(C)C)c1cn(C)nc1OC (stereo not shown) [Compound 711] | 2.71^[a] |
| CCOC(=O)C(C#N)=C(NC(C)COc1ccccc1C)c1cn(C)nc1C(F)F (racemic) [Compound 1242] | 3.78^[a] |
| CCNC(=O)C(C#N)=C(NC(C)C(C)C)c1ccnc(Cl)c1Br (stereo not shown) [Compound 1408] | 3.53^[a] |
| CCNC(=O)C(C#N)=C(NCC(C)c1nccs1)c1cccnc1Cl (stereo not shown) [Compound 1120] | 2.14^[a] |
| CCOC(=O)C(C#N)=C(NC(C)COc1cccc(OC)c1)c1cccnc1Cl (stereo not shown) [Compound 1173] | 3.58^[a] |
| CCOC(=O)C(C#N)=C(NC(C)c1ccc(F)cc1)c1cn(C)nc1C(F)F (mixture of isomers) [Compound 454] | 3.21^[a] |
| COC(=O)C(C#N)=C(NC(C)c1ccccn1)c1sc(C)nc1C(F)(F)F (racemic) [Compound 135] | 2.77^[a] |
| CCOC(=O)C(C#N)=C(NC(C)C(=O)Nc1ccc2ccccc2c1)c1sccc1C(F)(F)F (racemic) [Compound 653] | 4.01^[a] |
| CCOC(=O)C(C#N)=C(NC1COC1)c1cn(C)nc1C(F)F [Compound 1339] | 1.79^[a] |

| SMILES | Log P |
| --- | --- |
| CCOC(=O)C(C#N)=C(NC(C)C1CC=CCC1)c1cn(C)nc1C(F)F (stereo not shown) [Compound 1141] | 3.62^[a] |
| CCOC(=O)C(C#N)=C(NC(C)C1CC1)c1nc(Cl)ccc1Cl (stereo not shown) [Compound 888] | 3.73^[a] |
| CCOC(=O)C(C#N)=C(NC(C)C(C)C)c1cccnc1Cl (stereo not shown) [Compound 952] | 3.37 |
| CCOC(=O)C(C#N)=C(NC(C)CCc1ccccc1)c1cccnc1Cl (stereo not shown) [Compound 1167] | 3.92^[a] |
| CCOC(=O)C(C#N)=C(NCc1ccccn1)c1ccsc1Br [Compound 115] | 2.53^[a] |
| CCOC(=O)C(C#N)=C(NC(C)CC)c1sc(C)nc1C(F)(F)F (stereo not shown) [Compound 835] | 3.59^[a] |
| CCOC(=O)C(C#N)=C(NCc1nccs1)c1ccsc1Br [Compound 104] | 2.66^[a] |
| CCC(NC(=C(C#N)C(=O)OC)c1cccnc1Cl)C1CCCCC1 (stereo not shown) [Compound 762] | 4.07^[a] |
| CCOC(=O)C(C#N)=C(NC1CC2CCC1C2)c1cn(C)nc1C(F)F (stereo not shown) [Compound 1144] | 3.46^[a] |
| CCOC(=O)C(C#N)=C(NCc1nc(C(F)(F)F)cs1)c1ccsc1Br [Compound 249] | 3.42^[a] |
| CCOC(=O)C(C#N)=C(NC(C)C(=O)OC)c1cn(C)nc1C(F)F (stereo not shown) [Compound 673] | 2.31^[a] |
| CCOC(=O)C(C#N)=C(Nc1ccc(OC(F)F)cc1)c1cccnc1Cl [Compound 1169] | 3.19^[a] |
| COC(=O)C(C#N)=C(NCc1nc(C)cs1)c1sc(C)nc1C(F)(F)F [Compound 181] | 2.58^[a] |
| CCOC(=O)C(C#N)=C(NC(C)c1cccs1)c1sccc1Br (stereo not shown) [Compound 211] | 3.92^[a] |
| CCCCC(C)NC(=C(C#N)C(=O)OCC)c1cn(C)nc1C(F)F (stereo not shown) [Compound 1125] | 3.58^[a] |
| CCOC(=O)C(C#N)=C(NCc1ccccn1)c1nsc(Cl)c1Cl [Compound 70] | 2.84^[a] |
| CCOC(=O)C(C#N)=C(NC(C)C(=O)Nc1ccc2ccccc2c1)c1ccsc1Br (stereo not shown) [Compound 717] | 3.94^[a] |
| CCOC(=O)C(C#N)=C(NC(C)(C)C#CCOC)c1sc(C)nc1C(F)(F)F [Compound 1102] | 3.42^[a] |

Next, values leading:

| Log P | SMILES |
| --- | --- |
| 0.76^[a] | CCOC(=O)C(C#N)=C(NC(C)CN(C)C)c1conc1C (stereo not shown) [Compound 594] |
| 3.25^[a] | CCOC(=O)C(C#N)=C(NC(C)C(C)C)c1cnn(C)c1Cl (stereo not shown) [Compound 1485] |
| 3.33^[a] | CCOC(=O)C(C#N)=C(NC(C)c1ncc(C)s1)c1ccnc(Cl)c1Cl (racemic) [Compound 1389] |
| 2.42^[a] | CCOC(=O)C(C#N)=C(NC(C)c1nccs1)c1cnn(C)c1Cl (stereo not shown) [Compound 1501] |
| 1.93^[a] | COCCNC(=O)C(C#N)=C(NC(C)c1nccs1)c1cccnc1Cl (stereo not shown) [Compound 327] |
| 3.58^[a] | CCC(NC(=C(C#N)C(=O)OC)c1cccnc1Cl)c1ccc(Cl)cc1 (stereo not shown) [Compound 376] |
| 3.99^[a] | CCCC(C)NC(=C(C#N)C(=O)OCC)c1ccnc(Cl)c1Cl (racemic) [Compound 1390] |
| 2.37^[a] | CCOC(=O)C(C#N)=C(NCc1ccccn1)c1c(C(F)F)nn(C)c1Cl [Compound 155] |
| 1.45^[a] | CCOC(=O)C(C#N)=C(Nc1ccncc1C)c1cccnc1Cl [Compound 293] |
| 3.33^[a] | CCOC(=O)C(C#N)=C(NC(C)c1ccccn1)c1ccnc(C(F)(F)F)c1Cl (stereo not shown) [Compound 1625] |
| 2.98^[a] | CCOC(=O)C(C#N)=C(Nc1ccc(OC)cc1)c1cccnc1Cl [Compound 1153] |
| 3.92^[a] | CCOC(=O)C(C#N)=C(NC(C)C(C)C)c1ccnc(Cl)c1Br (stereo not shown) [Compound 1405] |
| 3.46^[a] | CCOC(=O)C(C#N)=C(NC(C)C1(C)CC1)c1cccnc1Cl (stereo not shown) [Compound 1533] |
| 3.33^[a] | CCOCC(COCC)NC(=C(C#N)C(=O)OCC)c1cccnc1Cl [Compound 1376] |
| 3.48^[a] | CC(C)C(C)NC(=C(C#N)C(=O)N1CCCCC1)c1cccnc1Cl (stereo not shown) [Compound 1508] |
| 3.62^[a] | CCOC(=O)C(C#N)=C(NC(C)c1ccc(Cl)cc1)c1conc1C (stereo not shown) [Compound 362] |
| 4.27^[a] | CCOC(=O)C(C#N)=C(NC(C)CSc1cc(Cl)ccc1Cl)c1cccnc1Cl (stereo not shown) [Compound 1157] |

Same assay, conditions: pH 7.5

| SMILES | Log P |
| --- | --- |
| COC(=O)C(C#N)=C(NC(C)C(C)C)c1cccnc1Cl (stereo not shown) [Compound 931] | 2.83 |
| CC(C)C(C)NC(=C(C#N)C(=O)NC1CSC1)c1cccnc1Cl (stereo not shown) [Compound 1452] | 3.22^[c]; 3.22^[b] |
| CCOC(=O)C(C#N)=C(NC1CC1)c1cccnc1Cl [Compound 764] | 2.36 |
| CCOC(=O)C(C#N)=C(NC(C)c1nccs1)c1cccnc1F (stereo not shown) [Compound 79] | 2.32 |
| CONC(=O)C(C#N)=C(Nc1ccccc1SC)c1cccnc1Cl [Compound 1620] | 1.96 |
| CCOC(=O)C(C#N)=C(NC(C)C(C)C)c1cccnc1Cl (stereo not shown) [Compound 952] | 3.33 |
| CCOC(=O)C(C#N)=C(Nc1cnc2sccc2c1)c1cccnc1Cl [Compound 1310] | 2.49 |
| CCOC(=O)C(C#N)=C(NC(C)c1ccc(Cl)cc1)c1cccnc1Cl (stereo not shown) [Compound 342] | 3.61 |
